In patent US8617516B2, “Universal anchor peptide for nanoparticles” (Washington University, priority 2008, dated 2013):
pKd: −log10 of the molar value.

Key:
[1] = Fluorescence correlation spectroscopy (FCS) diffusion time; format: physicochemical; details: mean±STD (n=3)
Excerpt: FCS is a quantitative technique, which detects fluorescence intensity fluctuations as fluorescent molecules diffuse through a small observation volume (<1 femtoliter). Statistical analysis of these fluorescence intensity fluctuations allows simultaneous determination of the number of fluorescent species in the system and their mobility.
In our case the observation volume is defined by the focal volume of a laser scanning microscope, while the statistical analysis of the intensity trace is calculated as follows: […]
The correlation curve obtained from the experiment is fitted with a mathematical function which describes the fluorescence intensity fluctuations in the observation volume according to Brownian diffusion and it also accounts for the photophysical characteristics of the dye:
where N is the average number of fluorescent particles in the observation volume, T is the fraction of fluorophores in the triplet state, τT is the lifetime of the triplet state of the fluorophore, τD is the characteristic diffusion time of the fluorophore, ω0 the waist radius of the laser focus. […]
The waist of the focus ω0 was determined by fitting the autocorrelation curve obtained in the same experimental conditions using free Alexa Fluor 488 [22]. In the case of labeled peptide binding to the nanoparticles the correlation curves were analyzed using the two component model as was described previously.

[2] = Surface plasmon resonance of NBD-Linker incorporation into PFC nanoparticles; format: binding; details: NBD-Linker on immobilized PFC nanoparticles, two-state model; read-out: dissociation constant of the entire process
Procedure: The kinetics of NBD-Linker incorporation into lipid monolayers of PFC nanoparticles was studied by surface plasmon resonance (SPR). SPR detects change in the […] of a surface (Biacore-X 100 and carboxymethylated dextran chip L1 from Biacore Inc, Piscataway, N.J.). A uniform lipid monolayer on a L1 chip was created by injecting PFC nanoparticles (3 μl/min) for 30 minutes. Loosely deposited nanoparticles were removed by performing extra washing steps after immobilization to ensure a stable baseline. Complete coverage was confirmed by injecting the bovine serum albumin (1 mg/ml in PBS) at 15 μl/min for 2 minutes. Different peptides in selected concentrations were injected at a flow rate of 30 μl/min for 1 minute. At the end of each experiment the chip was regenerated by two consecutive injections of 3-[(3-cholamidopropyl)dimethylammonio]-1-propanesulfonate, CHAPS (50 μl, 100 μl/min). The data were analyzed with BiaEvaluation software (Biacore Inc, Piscataway, N.J.). A two-state model, [17].
To investigate the release rate of the NBD-Linker from the PFC nanoparticles, surface plasma resonance experiments were performed with a Biacore X 100, which allows quantitative analysis of interaction between peptide and lipid membrane. […] We consistently recorded two populations of peptides in the peptide-lipid interactions. […]

[3] = Dynamic light scattering size and zeta potential of peptide-loaded PFOB/PFC nanoparticles; format: physicochemical; details: PFC nanoparticles without and with various amount of peptide loading
Procedure: The size distributions of the nanoparticles with or without the linker peptide were analyzed by dynamic light scattering (Brookhaven Instruments Corp., Holtsville, N.Y.). Zeta potential (ζ) values were determined with a Brookhaven Instruments PALS Zeta Potential Analyzer (Brookhaven Instruments Corp., Holtsville, N.Y.). Data were acquired in the phase-analysis light scattering (PALS) mode following solution equilibration at 25° C. […] This change further confirms the insertion of the linker peptide 1 into the PFOB nanoparticles. Furthermore, the structural integrity of linker peptide 1 inserted PFOB nanoparticles was confirmed by transmission electron microscopy.
The size distributions of the nanoparticles with or without cargo incorporated were analyzed by dynamic light scattering (Brookhaven Instruments Corp., Holtsville, N.Y.). The size distribution was plotted by particle number. Zeta potential (ζ) values were determined with a Brookhaven Instruments PALS Zeta Potential Analyzer (Brookhaven Instruments Corp., Holtsville, N.Y.). Data were acquired in the phase-analysis light scattering (PALS) mode following solution equilibration at 25° C.

Molecule	diffusion time [1] [μsec]	pKd [2]	mean diameters [3]
N=c1ccc2c(-c3ccc(C(=O)O)cc3C(=O)O)c3ccc(N)c(S(=O)(=O)O)c3oc-2c1S(=O)(=O)O [Alexa Fluor 488]	35.8±1.4		
NBD peptide (TALDWSWLQTE) fused onto the N-terminal of linker peptide (VLTTGLPALISWIKRKRQQ) with two glycines as a spacer [NBD-Linker]		6.85	equivalent
